Laboratory results taken from ChEMBL document CHEMBL1201862, “PubChem BioAssay data set” (2004).
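Growth conditions: 96-well plates. Treatment: test compound, 48 hours, 5 concentrations. Analysis: linear interpolation between bracketing concentrations; unreached endpoints set to highest concentration. Here, GI50 denotes the concentration required for 50% inhibition of growth.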 Activity calls are given as the source filed them. No stated cut-off is given here; in the data, active = GI50 up to about 1.1 µM and inactive = higher.

What was measured:
Test in all cases: NCI-60 cell line screen, 48 h
786-0 = test system: 786-0
A498 = test system: A498
A549 = test system: A549
ACHN = test system: ACHN
BT-549 = test system: BT-549
CAKI-1 = test system: CAKI-1
COLO 205 = test system: COLO 205
DLD-1 = test system: DLD-1
DMS-114 = test system: DMS-114
DMS-273 = test system: DMS-273
DU-145 = test system: DU-145
EKVX = test system: EKVX
HCC 2998 = test system: HCC 2998
HCT-116 = test system: HCT-116
HCT-15 = test system: HCT-15
HL-60 = test system: HL-60
HOP-18 = test system: HOP-18
HOP-62 = test system: HOP-62
HOP-92 = test system: HOP-92
HT-29 = test system: HT-29
Hs-578T = test system: Hs-578T
IGROV-1 = test system: IGROV-1
K562 = test system: K562
KM-20L2 = test system: KM-20L2
KM12 = test system: KM12
LOX IMVI = test system: LOX IMVI
LXFL 529 = test system: LXFL 529
M14 = test system: M14
M19-MEL = test system: M19-MEL
MCF7 = test system: MCF7
MDA-MB-231 = test system: MDA-MB-231
MDA-MB-435 = test system: MDA-MB-435
MDA-N = test system: MDA-N
Malme-3M = test system: Malme-3M
NCI-H226 = test system: NCI-H226
NCI-H23 = test system: NCI-H23
NCI-H460 = test system: NCI-H460
NCI-H522 = test system: NCI-H522
NCI/ADR-RES = test system: NCI/ADR-RES
OVCAR-3 = test system: OVCAR-3
OVCAR-4 = test system: OVCAR-4
OVCAR-5 = test system: OVCAR-5
OVCAR-8 = test system: OVCAR-8
PC-3 = test system: PC-3
RPMI-8226 = test system: RPMI-8226
RXF 393 = test system: RXF 393
RXF 631 = test system: RXF 631
SF-268 = test system: SF-268
SF-295 = test system: SF-295
SF-539 = test system: SF-539
SK-MEL-28 = test system: SK-MEL-28
SK-MEL-2 = test system: SK-MEL-2
SK-MEL-5 = test system: SK-MEL-5
SK-OV-3 = test system: SK-OV-3
SN12C = test system: SN12C
SNB-19 = test system: SNB-19
SNB-75 = test system: SNB-75
SNB-78 = test system: SNB-78
SR = test system: SR
SW-620 = test system: SW-620
TK-10 = test system: TK-10
U-251 = test system: U-251
UACC-257 = test system: UACC-257
UACC-62 = test system: UACC-62
UO-31 = test system: UO-31
CCRF-CEM = test system: CCRF-CEM
MOLT-4 = test system: MOLT-4

## CCN(CC)CC(O)CNc1ccc(NCC2CO2)c2c1C(=O)c1ccccc1C2=O (stereo unspecified)
786-0
  GI50: 186 nM (active)
A498
  GI50: 3510 nM (inactive)
A549
  GI50: 1030 nM (active)
ACHN
  GI50: 144 nM (active)
BT-549
  GI50: 194 nM (active)
CAKI-1
  GI50: 619 nM (active)
COLO 205
  GI50: 906 nM (active)
DLD-1
  GI50: 1900 nM (inactive)
DMS-114
  GI50: 1040 nM (active)
DMS-273
  GI50: 242 nM (active)
DU-145
  GI50: 1630 nM (inactive)
EKVX
  GI50: 1740 nM (inactive)
HCC 2998
  GI50: 1190 nM (inactive)
HCT-116
  GI50: 46.6 nM (active)
HCT-15
  GI50: 638 nM
HL-60
  GI50: 23.6 nM (active)
HOP-18
  GI50: 16600 nM (inactive)
HOP-62
  GI50: 1150 nM (inactive)
HOP-92
  GI50: 1750 nM (inactive)
HT-29
  GI50: 553 nM (active)
Hs-578T
  GI50: 1140 nM (inactive)
IGROV-1
  GI50: 1630 nM (inactive)
K562
  GI50: 47.9 nM (active)
KM-20L2
  GI50: 692 nM (active)
KM12
  GI50: 294 nM (active)
LOX IMVI
  GI50: < 10 nM (active)
LXFL 529
  GI50: 48.6 nM (active)
M14
  GI50: 199 nM (active)
M19-MEL
  GI50: 125 nM (active)
MCF7
  GI50: 10.9 nM (active)
MDA-MB-231
  GI50: 536 nM (active)
MDA-MB-435
  GI50: 211 nM (active)
MDA-N
  GI50: 323 nM (active)
Malme-3M
  GI50: 1930 nM (inactive)
NCI-H226
  GI50: 1320 nM (inactive)
NCI-H23
  GI50: 499 nM (active)
NCI-H460
  GI50: 695 nM (active)
NCI-H522
  GI50: 647 nM (active)
NCI/ADR-RES
  GI50: 99.3 nM (active)
OVCAR-3
  GI50: 460 nM (active)
OVCAR-4
  GI50: 1180 nM (inactive)
OVCAR-5
  GI50: 2300 nM (inactive)
OVCAR-8
  GI50: 66.1 nM (active)
PC-3
  GI50: 740 nM (active)
RPMI-8226
  GI50: 614 nM (active)
RXF 393
  GI50: 397 nM (active)
RXF 631
  GI50: 272 nM (active)
SF-268
  GI50: 61.9 nM (active)
SF-295
  GI50: 1050 nM (active)
SF-539
  GI50: 1320 nM (inactive)
SK-MEL-28
  GI50: 1110 nM (active)
SK-MEL-2
  GI50: 226 nM (active)
SK-MEL-5
  GI50: 447 nM (active)
SK-OV-3
  GI50: 1860 nM (inactive)
SN12C
  GI50: 139 nM (active)
SNB-19
  GI50: 1680 nM (inactive)
SNB-75
  GI50: 1600 nM (inactive)
SNB-78
  GI50: 398 nM (active)
SR
  GI50: 55 nM (active)
SW-620
  GI50: 32.7 nM (active)
TK-10
  GI50: 2290 nM (inactive)
U-251
  GI50: 1240 nM (inactive)
UACC-257
  GI50: 1480 nM (inactive)
UACC-62
  GI50: 560 nM (active)
UO-31
  GI50: 594 nM (active)

## CCCCCCCCC/C=C1\CCC(CN2CCOCC2)C1=O (stereo unspecified)
786-0
  GI50: 1300 nM (inactive)
A498
  GI50: 12000 nM (inactive)
A549
  GI50: 15000 nM (inactive)
ACHN
  GI50: 4920 nM (inactive)
BT-549
  GI50: 2080 nM (inactive)
CAKI-1
  GI50: 4600 nM (inactive)
CCRF-CEM
  GI50: 1800 nM (inactive)
COLO 205
  GI50: 3730 nM (inactive)
DLD-1
  GI50: 1960 nM (inactive)
DMS-114
  GI50: 2920 nM (inactive)
DMS-273
  GI50: 2320 nM (inactive)
DU-145
  GI50: 4650 nM (inactive)
EKVX
  GI50: 14800 nM (inactive)
HCC 2998
  GI50: 6900 nM (inactive)
HCT-116
  GI50: 1750 nM (inactive)
HCT-15
  GI50: 2470 nM
HL-60
  GI50: 1670 nM (inactive)
HOP-18
  GI50: 1540 nM (inactive)
HOP-62
  GI50: 13600 nM (inactive)
HOP-92
  GI50: 3380 nM (inactive)
HT-29
  GI50: 2880 nM (inactive)
Hs-578T
  GI50: 1940 nM (inactive)
IGROV-1
  GI50: 4830 nM (inactive)
K562
  GI50: 2450 nM (inactive)
KM-20L2
  GI50: 7350 nM (inactive)
KM12
  GI50: 2170 nM (inactive)
LOX IMVI
  GI50: 855 nM (active)
LXFL 529
  GI50: 1600 nM (inactive)
M14
  GI50: 3230 nM (inactive)
M19-MEL
  GI50: 3280 nM (inactive)
MCF7
  GI50: 1030 nM (active)
MDA-MB-231
  GI50: 2960 nM (inactive)
MDA-MB-435
  GI50: 2360 nM (inactive)
MDA-N
  GI50: 2640 nM (inactive)
MOLT-4
  GI50: 1570 nM (inactive)
Malme-3M
  GI50: 7080 nM (inactive)
NCI-H226
  GI50: 5610 nM (inactive)
NCI-H23
  GI50: 3900 nM (inactive)
NCI-H460
  GI50: 7260 nM (inactive)
NCI-H522
  GI50: 2640 nM (inactive)
OVCAR-3
  GI50: 8550 nM (inactive)
OVCAR-4
  GI50: 3720 nM (inactive)
OVCAR-5
  GI50: 16900 nM (inactive)
OVCAR-8
  GI50: 1820 nM (inactive)
PC-3
  GI50: 1790 nM (inactive)
RPMI-8226
  GI50: 303 nM (active)
RXF 393
  GI50: 2310 nM (inactive)
RXF 631
  GI50: 5620 nM (inactive)
SF-268
  GI50: 3940 nM (inactive)
SF-295
  GI50: 7480 nM (inactive)
SF-539
  GI50: 1860 nM (inactive)
SK-MEL-28
  GI50: 3050 nM (inactive)
SK-MEL-2
  GI50: 5510 nM (inactive)
SK-MEL-5
  GI50: 6650 nM (inactive)
SK-OV-3
  GI50: 17300 nM (inactive)
SN12C
  GI50: 3780 nM (inactive)
SNB-19
  GI50: 9040 nM (inactive)
SNB-75
  GI50: 6170 nM (inactive)
SNB-78
  GI50: 4290 nM (inactive)
SR
  GI50: 2380 nM (inactive)
SW-620
  GI50: 2280 nM (inactive)
TK-10
  GI50: 2330 nM (inactive)
U-251
  GI50: 2020 nM (inactive)
UACC-257
  GI50: 3990 nM (inactive)
UACC-62
  GI50: 3450 nM (inactive)
UO-31
  GI50: 4950 nM (inactive)
